Laboratory results as given in patent publication US8399465B2, “Compounds with two fused bicyclic heteroaryl moieties as modulators of leukotriene A4 hydrolase” (Janssen Pharmaceutica NV, priority 2009, dated 2013).
Counter-ions that a name gives are not always drawn.

How the values were obtained:
[1] = tested on: LTB4 production in murine blood (LTA4H); test: LTB4 production by calcium ionophore-stimulated murine blood for LTA4H inhibitor activity; type: cell-based, CD-1 mice; conditions: Mus musculus; murine blood diluted 1 in 15, A23187 stimulated; single determination or average; mark after value = form tested: ′ free base, ″ hydrochloride, ^ formate; read-out: IC50
Summary of the method: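 LTB4 was measured by ELISA in supernatants after calcium ionophore A23187 stimulation (final 7 μg/mL, 30 min, 37° C) of CD-1 mouse blood collected on heparin. Compound was preincubated with the blood for 15 min beforehand. Values come from one determination or average several.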

[2] = target: T1, recombinant human LTA4 hydrolase (rhLTA4H) (Homo sapiens, UniProt P09960); test: Recombinant human LTA4 hydrolase assay for LTA4 hydrolase inhibitor activity; type: biochemical; conditions: rhLTA4H, LTB4 by immunoassay; single determination or average of two or more; mark after value = form tested: ′ free base, ″ hydrochloride, ^ formate; read-out: IC50
T1 construct: made in house; host or cells: Spodoptera frugiperda (Sf-9) cells, baculovirus (pFastBac1)
T1 sequence (P09960 1-611): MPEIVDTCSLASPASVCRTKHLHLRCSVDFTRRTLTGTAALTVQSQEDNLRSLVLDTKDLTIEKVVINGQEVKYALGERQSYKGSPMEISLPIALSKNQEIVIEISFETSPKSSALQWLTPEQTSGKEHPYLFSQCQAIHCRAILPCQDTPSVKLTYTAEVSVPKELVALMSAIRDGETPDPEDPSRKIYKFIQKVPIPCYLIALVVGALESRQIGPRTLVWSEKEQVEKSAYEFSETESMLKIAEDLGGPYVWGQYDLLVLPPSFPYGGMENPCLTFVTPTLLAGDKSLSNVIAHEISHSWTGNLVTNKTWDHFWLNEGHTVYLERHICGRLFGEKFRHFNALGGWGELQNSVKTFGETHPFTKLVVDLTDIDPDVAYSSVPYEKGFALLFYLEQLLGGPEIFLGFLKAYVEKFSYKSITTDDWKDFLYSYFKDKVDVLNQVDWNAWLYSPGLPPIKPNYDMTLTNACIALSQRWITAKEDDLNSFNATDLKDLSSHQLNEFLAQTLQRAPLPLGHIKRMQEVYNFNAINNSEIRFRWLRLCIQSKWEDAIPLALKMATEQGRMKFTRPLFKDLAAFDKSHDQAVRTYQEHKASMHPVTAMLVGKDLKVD
Summary of the method: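 LTB4 formation, measured by enzyme immunoassay, was the read-out. The enzyme, recombinant human LTA4H expressed in Sf-9 insect cells (10 ng per reaction), was exposed to compound for 10 min at room temperature before hydrolysed-ester LTA4 substrate was added for 30 min. Enzyme-free negatives were included.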

## CC(=O)N1C[C@H]2C[C@@H]1CN2Cc1cc2ncc(Oc3nc4ncccc4s3)cc2o1 [Example 340, (1R,4R)-1-{5-[6-(Thiazolo[4,5-b]pyridin-2-yloxy)-furo[3,2-b]pyridin-2-ylmethyl]-2,5-diaza-bicyclo[2.2.1]hept-2-yl}-ethanone formate]
[1]
  IC50: 610 nM
[2]
  IC50: 12 nM

## O=C1CN(Cc2coc3cc(Oc4nc5ncccc5s4)ccc23)CCN1 [Example 342, 4-[6-(Thiazolo[4,5-b]pyridin-2-yloxy)-benzofuran-3-ylmethyl]-piperazin-2-one]
[1]
  IC50: 230 nM
[2]
  IC50: 16 nM

## c1ccc(CNCc2coc3cc(Oc4nc5ncccc5s4)ccc23)cc1 [Example 344, Benzyl-[6-(thiazolo[4,5-b]pyridin-2-yloxy)-benzofuran-3-ylmethyl]-amine]
[1]
  IC50: 100 nM
[2]
  IC50: 21 nM

## Fc1ccc(CNCc2coc3cc(Oc4nc5ncccc5s4)ccc23)cc1 [Example 345, (4-Fluoro-benzyl)-[6-(thiazolo[4,5-b]pyridin-2-yloxy)-benzofuran-3-ylmethyl]-amine]
[1]
  IC50: 72 nM
[2]
  IC50: 7 nM

## OC1(c2ccc(Cl)cc2)CCN(Cc2coc3cc(Oc4nc5ncccc5s4)ccc23)CC1 [Example 347, 4-(4-Chloro-phenyl)-1-[6-(thiazolo[4,5-b]pyridin-2-yloxy)-benzofuran-3-ylmethyl]-piperidin-4-ol]
[1]
  IC50: 130 nM
[2]
  IC50: 24 nM

## OC1(c2ccc(Br)cc2)CCN(Cc2coc3cc(Oc4nc5ncccc5s4)ccc23)CC1 [Example 348, 4-(4-Bromo-phenyl)-1-[6-(thiazolo[4,5-b]pyridin-2-yloxy)-benzofuran-3-ylmethyl]-piperidin-4-ol]
[1]
  IC50: 360 nM
[2]
  IC50: 67 nM

## CC1CN(Cc2coc3cc(Oc4nc5ncccc5s4)ccc23)CC(C)O1 (centres unmarked) [Example 349, 2-[3-(2,6-Dimethyl-morpholin-4-ylmethyl)-benzofuran-6-yloxy]-thiazolo[4,5-b]pyridine]
[1]
  IC50: 860 nM
[2]
  IC50: 26 nM

## FC1CCCN(Cc2coc3cc(Oc4nc5ncccc5s4)ccc23)C1 (centres unmarked) [Example 350, 2-[3-(3-Fluoro-piperidin-1-ylmethyl)-benzofuran-6-yloxy]-thiazolo[4,5-b]pyridine]
[1]
  IC50: 38 nM
[2]
  IC50: 26 nM

## O=c1[nH]ncn1C1CCN(Cc2coc3cc(Oc4nc5ncccc5s4)ccc23)CC1 [Example 351, 4-{1-[6-(Thiazolo[4,5-b]pyridin-2-yloxy)-benzofuran-3-ylmethyl]-piperidin-4-yl}-2,4-dihydro-[1,2,4]triazol-3-one]
[1]
  IC50: 94 nM
[2]
  IC50: 2 nM

## CC(=O)N1CC2CC(CN(Cc3coc4cc(Oc5nc6ncccc6s5)ccc34)C2)C1 [Example 352, 1-{7-[6-(Thiazolo[4,5-b]pyridin-2-yloxy)-benzofuran-3-ylmethyl]-3,7-diaza-bicyclo[3.3.1]non-3-yl}-ethanone]
[1]
  IC50: 110 nM
[2]
  IC50: 50 nM

## CCN(C(C)=O)C1CCN(Cc2coc3cc(Oc4nc5ncccc5s4)ccc23)CC1 [Example 353, N-Ethyl-N-{1-[6-(thiazolo[4,5-b]pyridin-2-yloxy)-benzofuran-3-ylmethyl]-piperidin-4-yl}-acetamide]
[1]
  IC50: 22 nM
[2]
  IC50: 6 nM

## O=C(C1CCOC1)N1CC2CN(Cc3coc4cc(Oc5nc6ncccc6s5)ccc34)CC2C1 (centres unmarked) [Example 354, (Tetrahydro-furan-3-yl)-{5-[6-(thiazolo[4,5-b]pyridin-2-yloxy)-benzofuran-3-ylmethyl]-hexahydro-pyrrolo[3,4-c]pyrrol-2-yl}-methanone]
[1]
  IC50: 200 nM
[2]
  IC50: 7 nM

## O=C(CO)N1CC2CN(Cc3coc4cc(Oc5nc6ncccc6s5)ccc34)CC2C1 (centres unmarked) [Example 355, 2-Hydroxy-1-{5-[6-(thiazolo[4,5-b]pyridin-2-yloxy)-benzofuran-3-ylmethyl]-hexahydro-pyrrolo[3,4-c]pyrrol-2-yl}-ethanone]
[1]
  IC50: 68 nM
[2]
  IC50: 3 nM

## O=C(c1cnccn1)N1C[C@@H]2C[C@H]1CN2Cc1coc2cc(Oc3nc4ncccc4s3)ccc12 [Example 356, (1S,4S)-Pyrazin-2-yl-{5-[6-(thiazolo[4,5-b]pyridin-2-yloxy)-benzofuran-3-ylmethyl]-2,5-diaza-bicyclo[2.2.1]hept-2-yl}-methanone]
[1]
  IC50: 260 nM
[2]
  IC50: 18 nM

## O=C(C1CCC1)N1C[C@@H]2C[C@H]1CN2Cc1coc2cc(Oc3nc4ncccc4s3)ccc12 [Example 357, (1S,4S)-Cyclobutyl-{5-[6-(thiazolo[4,5-b]pyridin-2-yloxy)-benzofuran-3-ylmethyl]-2,5-diaza-bicyclo[2.2.1]hept-2-yl}-methanone]
[1]
  IC50: 220 nM
[2]
  IC50: 7 nM

## O=C(c1ccno1)N1C[C@@H]2C[C@H]1CN2Cc1coc2cc(Oc3nc4ncccc4s3)ccc12 [Example 358, (1S,4S)-Isoxazol-5-yl-{5-[6-(thiazolo[4,5-b]pyridin-2-yloxy)-benzofuran-3-ylmethyl]-2,5-diaza-bicyclo[2.2.1]hept-2-yl}-methanone]
[1]
  IC50: 14 nM
[2]
  IC50: 9 nM

## O=C(c1ccoc1)N1CC2CN(Cc3coc4cc(Oc5nc6ncccc6s5)ccc34)CC2C1 (centres unmarked) [Example 359, Furan-3-yl-{5-[6-(thiazolo[4,5-b]pyridin-2-yloxy)-benzofuran-3-ylmethyl]-hexahydro-pyrrolo[3,4-c]pyrrol-2-yl}-methanone]
[1]
  IC50: 190 nM
[2]
  IC50: 8 nM

## COC(=O)c1ccc(CN2C[C@@H]3C[C@H]2CN3Cc2coc3cc(Oc4nc5ncccc5s4)ccc23)cc1 [Example 360, (1S,4S)-4-{5-[6-(Thiazolo[4,5-b]pyridin-2-yloxy)-benzofuran-3-ylmethyl]-2,5-diaza-bicyclo[2.2.1]hept-2-ylmethyl}-benzoic acid methyl ester]
[1]
  IC50: 350 nM
[2]
  IC50: 17 nM

## CN(C)Cc1coc2cc(Oc3nc4ncccc4s3)ccc12 [Example 361, Dimethyl-[6-(thiazolo[4,5-b]pyridin-2-yloxy)-benzofuran-3-ylmethyl]-amine]
[1]
  IC50: 10 nM
[2]
  IC50: 20 nM

## CS(=O)(=O)NC1CCN(Cc2coc3cc(Oc4nc5ccccc5s4)ccc23)CC1 [Example 363, N-{1-[6-(Benzothiazol-2-yloxy)-benzofuran-3-ylmethyl]-piperidin-4-yl}-methanesulfonamide]
[1]
  IC50: 400 nM
[2]
  IC50: 37 nM

## CS(=O)(=O)NCCC1CCN(Cc2coc3cc(Oc4nc5ccccc5s4)ccc23)CC1 [Example 364, N-(2-{1-[6-(Benzothiazol-2-yloxy)-benzofuran-3-ylmethyl]-piperidin-4-yl}-ethyl)-methanesulfonamide]
[1]
  IC50: 310 nM
[2]
  IC50: 18 nM

## CC(=O)NC1CCN(C(=O)c2coc3cc(Oc4nc5ncccc5s4)ccc23)CC1 [Example 368, N-{1-[6-(Thiazolo[4,5-b]pyridin-2-yloxy)-benzofuran-3-carbonyl]-piperidin-4-yl}-acetamide]
[1]
  IC50: 170 nM
[2]
  IC50: 26 nM

## CC(C)N(C)C(=O)c1coc2cc(Oc3nc4ncccc4s3)ccc12 [Example 373, 6-(Thiazolo[4,5-b]pyridin-2-yloxy)-benzofuran-3-carboxylic acid isopropyl-methyl-amide]
[1]
  IC50: 100 nM
[2]
  IC50: 34 nM

## NC(=O)N1C[C@@H]2C[C@H]1CN2C(=O)c1coc2cc(Oc3nc4ncccc4s3)ccc12 [Example 375, (1S,4S)-5-[6-(Thiazolo[4,5-b]pyridin-2-yloxy)-benzofuran-3-carbonyl]-2,5-diaza-bicyclo[2.2.1]heptane-2-carboxylic acid amide]
[1]
  IC50: 610 nM
[2]
  IC50: 41 nM

## O=C(c1coc2cc(Oc3nc4ncccc4s3)ccc12)N1CCC(F)CC1 [Example 376, (4-Fluoro-piperidin-1-yl)-[6-(thiazolo[4,5-b]pyridin-2-yloxy)-benzofuran-3-yl]-methanone]
[1]
  IC50: 85 nM
[2]
  IC50: 13 nM

## O=C(c1coc2cc(Oc3nc4ncccc4s3)ccc12)N1CCC(c2ccccc2)CC1 [Example 377, (4-Phenyl-piperidin-1-yl)-[6-(thiazolo[4,5-b]pyridin-2-yloxy)-benzofuran-3-yl]-methanone]
[1]
  IC50: 410 nM
[2]
  IC50: 20 nM

## NC(=O)C1CCN(C(=O)c2coc3cc(Oc4nc5ncccc5s4)ccc23)CC1 [Example 378, 1-[6-(Thiazolo[4,5-b]pyridin-2-yloxy)-benzofuran-3-carbonyl]-piperidine-4-carboxylic acid amide]
[1]
  IC50: 110 nM
[2]
  IC50: 22 nM

## O=C(c1coc2cc(Oc3nc4ncccc4s3)ccc12)N1CCN(C2CCCCC2)CC1 [Example 379, (4-Cyclohexyl-piperazin-1-yl)-[6-(thiazolo[4,5-b]pyridin-2-yloxy)-benzofuran-3-yl]-methanone]
[1]
  IC50: 150 nM
[2]
  IC50: 10 nM
